Measurements: ChEMBL document CHEMBL2303647, “Data associated with the publication PLoS ONE, 8(3), e57888, (2013) PMID: 23505445. Compounds: GSK PKIS; Assays: NIH NCATS”

How the values were obtained:
[1] = molecular target: Luciferin 4-monooxygenase (Photinus pyralis, UniProt P08659)
Description: GSK_PKIS: Inhibition of Firefly Luciferase (Data from PubChem: AID 652016) [NIH NCATS]

[2] = molecular target: T1, Coelenterazine h 2-monooxygenase (Renilla reniformis, UniProt P27652)
T1 sequence (P27652 whole entry): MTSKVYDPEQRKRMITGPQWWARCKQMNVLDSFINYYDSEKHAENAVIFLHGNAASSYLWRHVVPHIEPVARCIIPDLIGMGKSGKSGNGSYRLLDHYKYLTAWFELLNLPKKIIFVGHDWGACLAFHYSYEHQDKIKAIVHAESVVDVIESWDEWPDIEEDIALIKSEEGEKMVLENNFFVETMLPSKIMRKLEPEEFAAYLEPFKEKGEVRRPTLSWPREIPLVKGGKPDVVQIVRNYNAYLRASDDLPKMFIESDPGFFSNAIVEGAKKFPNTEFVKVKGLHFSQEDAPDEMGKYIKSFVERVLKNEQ
Description: GSK_PKIS: Inhibition of Sea Pansy Luciferase (Data from PubChem: AID 652015) [NIH NCATS]

Sequence of Luciferin 4-monooxygenase (P08659 whole entry): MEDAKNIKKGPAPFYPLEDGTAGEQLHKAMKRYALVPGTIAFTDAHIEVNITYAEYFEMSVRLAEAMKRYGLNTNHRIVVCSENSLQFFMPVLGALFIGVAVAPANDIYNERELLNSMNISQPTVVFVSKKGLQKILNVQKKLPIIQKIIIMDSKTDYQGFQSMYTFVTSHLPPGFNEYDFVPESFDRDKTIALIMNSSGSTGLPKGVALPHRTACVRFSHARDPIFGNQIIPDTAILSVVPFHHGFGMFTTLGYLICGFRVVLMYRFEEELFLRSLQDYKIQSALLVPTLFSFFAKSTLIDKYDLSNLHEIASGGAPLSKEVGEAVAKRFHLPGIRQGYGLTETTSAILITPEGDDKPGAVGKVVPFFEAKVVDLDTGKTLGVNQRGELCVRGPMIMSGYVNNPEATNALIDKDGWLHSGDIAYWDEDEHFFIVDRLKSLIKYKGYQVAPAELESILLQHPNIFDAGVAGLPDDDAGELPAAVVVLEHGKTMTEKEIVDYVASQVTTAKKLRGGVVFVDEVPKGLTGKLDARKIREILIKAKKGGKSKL

Row | SMILES | AC50 ([1]; read-out: AC50) [µM] | AC50 ([2]; read-out: AC50) [µM] | AC50 [2] | AC50 [1]
1 | COc1ccccc1-c1cc(/C=C2\C(=O)Nc3ncc(Br)cc32)cc(Br)c1O [GW442130X] | 41.1 | 8.19 |  | 
2 | CNC(=O)c1cncc(/C=C/c2c(C)cccc2C)c1 [GW445012X] | 20.6 |  | Phenotype: Inactive; Curve_Description: None | 
3 | CNC(=O)c1cncc(/C=C/c2c(Cl)cccc2Cl)c1 [GW445014X] | 16.3 | 23.1 |  | 
4 | CNC(=O)c1cncc(/C=C/c2ccccc2C)c1 [GW445015X] |  |  | Phenotype: Inactive; Curve_Description: None | Phenotype: Inactive; Curve_Description: None
5 | CNC(=O)c1cncc(/C=C/c2ccccc2Cl)c1 [GW445017X] | 9.19 |  | Phenotype: Inactive; Curve_Description: None | 
6 | CCc1cccc(CC)c1/C=C/c1cncc(C(=O)NC)c1 [GW450241X] | 36.6 |  | Phenotype: Inactive; Curve_Description: None | 
7 | Cc1cc(-c2ccco2)cc(C)c1/C=C/c1cncc(-c2nn[nH]n2)c1.Cl [GW458344A] | 20.6 |  | Phenotype: Inactive; Curve_Description: None | 
8 | CS(=O)(=O)CCNCc1ccc(-c2ccc3ncnc(Nc4ccc(OCc5ccccc5)cc4)c3c2)o1.Cl [GW458787A] | 18.3 |  | Phenotype: Inactive; Curve_Description: None | 
9 | Cc1cc(-c2ccccn2)cc(C)c1/C=C/c1cncc(-c2nn[nH]n2)c1.Cl [GW459057A] |  | 32.6 |  | Phenotype: Inactive; Curve_Description: None
10 | CS(=O)(=O)CCNCc1nc(-c2ccc3ncnc(Nc4ccc(F)c(Cl)c4)c3c2)cs1.Cl [GW461104A] |  |  | Phenotype: Inactive; Curve_Description: None | Phenotype: Inactive; Curve_Description: None
11 | COc1cc(C=NNc2ncnc3c2cnn3-c2ccccc2)ccc1O [GW513184X] |  |  | Phenotype: Inactive; Curve_Description: None | Phenotype: Inactive; Curve_Description: None
12 | CCn1c(-c2nonc2N)nc2ccccc21 [GW549034X] |  |  | Phenotype: Inactive; Curve_Description: None | Phenotype: Inactive; Curve_Description: None
13 | CS(=O)(=O)CCNCc1ccc(-c2ccc3ncnc(Nc4ccc(OCc5cccc(C(F)(F)F)c5)cc4)c3c2)o1.Cl [GW567808A] |  |  | Phenotype: Activator; Curve_Description: None | Phenotype: Inactive; Curve_Description: None
14 | Nc1nccc(-c2c(-c3ccc(F)cc3)nn3cc(C(F)(F)F)ccc23)n1 [GW568326X] |  |  | Phenotype: Inactive; Curve_Description: None | Phenotype: Inactive; Curve_Description: None
15 | CS(=O)(=O)CCNCc1nc(-c2ccc3ncnc(Nc4ccc(OCc5cccc(C(F)(F)F)c5)cc4)c3c2)cs1.Cl [GW569530A] |  |  | Phenotype: Inactive; Curve_Description: None | Phenotype: Inactive; Curve_Description: None
16 | NS(=O)(=O)c1ccc(Nc2ncc(-c3ccccc3)o2)cc1 [GW572399X] |  |  | Phenotype: Inactive; Curve_Description: None | Phenotype: Inactive; Curve_Description: None
17 | CCN(CC)S(=O)(=O)c1ccc(OC)c(Nc2ncc(-c3ccccc3)o2)c1 [GW572401X] |  |  | Phenotype: Inactive; Curve_Description: None | Phenotype: Inactive; Curve_Description: None
18 | CS(=O)(=O)CCNCc1ccc(-c2ccc3ncnc(Nc4ccc(OCc5ccccc5)c(C(F)(F)F)c4)c3c2)o1.Cl [GW574782A] |  |  | Phenotype: Inactive; Curve_Description: None | Phenotype: Inactive; Curve_Description: None
19 | CS(=O)(=O)CCNCc1ccc(-c2ccc3ncnc(Nc4ccc(OCc5cccc(F)c5)c(C(F)(F)F)c4)c3c2)o1 [GW576484X] |  |  | Phenotype: Inactive; Curve_Description: None | Phenotype: Inactive; Curve_Description: None
20 | O=C(O)C(F)(F)F.[O-][S+]1CCN(Cc2ccc(-c3ccc4ncnc(Nc5ccc(OCc6cccc(F)c6)c(Cl)c5)c4c3)o2)CC1 [GW576609A] | 18.3 |  | Phenotype: Inactive; Curve_Description: None | 
21 | Cl.[O-][S+]1CCN(Cc2ccc(-c3ccc4ncnc(Nc5ccc(OCc6ccccc6)c(F)c5)c4c3)o2)CC1 [GW576924A] | 16.3 |  | Phenotype: Inactive; Curve_Description: None | 
22 | CS(=O)(=O)CCNCc1ccc(-c2ccc3ncnc(Nc4ccc(OCc5ccccc5)c(Br)c4)c3c2)o1.Cl [GW580496A] | 20.6 |  | Phenotype: Inactive; Curve_Description: None | 
23 | NC(=O)c1ccc2c(-c3ccnc(NCCCO)n3)c(-c3ccc(F)cc3)nn2c1 [GW581744X] |  |  | Phenotype: Inactive; Curve_Description: None | Phenotype: Inactive; Curve_Description: None
24 | [O-][S+]1CCN(Cc2ccc(-c3ccc4ncnc(Nc5ccc(OCc6ccccc6)c(Cl)c5)c4c3)o2)CC1 [GW583373A] | 14.6 | 0.0005 |  | 
25 | O=S(=O)(CCOCc1ccc(-c2ccc3ncnc(Nc4ccc(OCc5cccc(F)c5)c(Cl)c4)c3c2)o1)c1ccccc1 [GW615311X] |  | 46.1 |  | Phenotype: Inactive; Curve_Description: None
26 | CS(=O)(=O)CCN(CC#N)Cc1ccc(-c2ccc3ncnc(Nc4ccc(OCc5cccc(F)c5)c(Cl)c4)c3c2)o1 [GW616030X] |  |  | Phenotype: Inactive; Curve_Description: None | Phenotype: Inactive; Curve_Description: None
27 | CCS(=O)(=O)c1ccc(OC)c(Nc2ncc(-c3cccc(C(C)=O)c3)o2)c1 [GW621431X] |  |  | Phenotype: Inactive; Curve_Description: None | Phenotype: Inactive; Curve_Description: None
28 | CCCN(CCS(C)(=O)=O)Cc1ccc(-c2ccc3ncnc(Nc4ccc(OCc5cccc(F)c5)c(Cl)c4)c3c2)o1.Cl [GW621823A] | 20.6 |  | Phenotype: Inactive; Curve_Description: None | 
29 | CCS(=O)(=O)c1ccc(OC)c(Nc2ncc(-c3cccc(F)c3)o2)c1 [GW621970X] |  |  | Phenotype: Inactive; Curve_Description: None | Phenotype: Inactive; Curve_Description: None

More lines, main results first:

Row | AC50 ([1]; read-out: AC50) [µM] | AC50 ([2]; read-out: AC50) [µM] | SMILES | AC50 [2] | AC50 [1]
30 | 0.259 |  | c1ccc(Nc2ncc(-c3ccccc3)o2)cc1 [GW549390X] | Phenotype: Inactive; Curve_Description: None | 
31 | 41.1 |  | Cc1ccc(O)cc1Nc1ccnc2ccc(S(C)(=O)=O)cc12 [GW559768X] | Phenotype: Inactive; Curve_Description: None | 
32 | 46.1 |  | N#Cc1ccc2c(-c3ccnc(NC4CC4)n3)c(-c3ccc(F)cc3)nn2c1 [GW561436X] | Phenotype: Inactive; Curve_Description: None | 
33 | 13 |  | CS(=O)(=O)CCNCc1coc(-c2ccc3ncnc(Nc4ccc(OCc5ccccc5)cc4)c3c2)c1.Cl [GW566221A] | Phenotype: Inactive; Curve_Description: None | 
34 | 20.6 |  | CS(=O)(=O)CCNCc1ccoc1-c1ccc2ncnc(Nc3ccc(OCc4ccccc4)cc3)c2c1.Cl [GW568377A] | Phenotype: Inactive; Curve_Description: None | 
35 | 32.6 |  | O=C(O)/C=C/C(=O)O.OCCCNc1nccc(-c2c(-c3ccc(F)cc3)nn3cc(C(F)(F)F)ccc23)n1 [GW569293E] | Phenotype: Inactive; Curve_Description: None | 
36 | 0.819 |  | N#Cc1c(NC(=O)c2ccccc2F)sc2c1CCCC2 [GW572738X] | Phenotype: Inactive; Curve_Description: None | 
37 | 20.6 |  | CS(=O)(=O)CCNCc1ccc(-c2ccc3ncnc(Nc4ccc(OCc5ccccc5)c(Cl)c4)c3c2)o1.Cl [GW574783B] | Phenotype: Inactive; Curve_Description: None | 
38 | 5.8 |  | COc1ccc(Nc2ncc(-c3ccccc3)o2)cc1OC.Cl [GW575533A] | Phenotype: Inactive; Curve_Description: None | 
39 | 1.46 |  | Cc1ccc(Nc2ccnc(Nc3cccc(C(N)=O)c3)n2)cc1O.Cl [GW575808A] | Phenotype: Inactive; Curve_Description: None | 
40 | 1.03 |  | COc1ccccc1Nc1ncc(-c2ccccc2)o1.Cl [GW577921A] | Phenotype: Inactive; Curve_Description: None | 
41 | 3.66 |  | COc1cc(/C=N/Nc2ncnc3[nH]ncc23)ccc1O [GW578748X] | Phenotype: Inactive; Curve_Description: None | 
42 |  | 18.3 | CCS(=O)(=O)c1ccc(OC)c(Nc2ncc(-c3cccc(OC)c3)o2)c1 [GW580509X] |  | Phenotype: Inactive; Curve_Description: None
43 |  | 16.3 | NS(=O)(=O)c1ccc(NC=C2C(=O)Nc3ccc4ncsc4c32)cc1 [GW589933X] |  | Phenotype: Inactive; Curve_Description: None
44 | 20.6 |  | COC(=O)Nc1nc2ccc(Oc3ccc(NC(=O)Nc4cccc(Cl)c4)cc3)cc2[nH]1.Cl [GW589961A] | Phenotype: Inactive; Curve_Description: None | 
45 |  | 0.0006 | COC(=O)Nc1nc2ccc(Sc3ccc(NC(=O)Nc4cc(C(F)(F)F)ccc4F)cc3)cc2[nH]1.O=S(=O)(O)O [GW607049C] |  | Phenotype: Inactive; Curve_Description: None
46 | 41.1 |  | Cc1nnc(-c2ccc(C)c(-c3ccc(C(=O)Nc4cccc(C#N)c4)cc3)c2)o1 [GW607117X] | Phenotype: Inactive; Curve_Description: None | 
47 | 18.3 | 36.6 | COc1cc(Nc2nccc(Nc3ccc4c(C)n[nH]c4c3)n2)cc(OC)c1OC [GW612286X] |  | 
48 | 41.1 |  | CN(C)CCCNc1nccc(-c2c(-c3ccc(F)cc3)nn3cc(C(F)(F)F)ccc23)n1.CS(=O)(=O)O [GW618013A] | Phenotype: Inactive; Curve_Description: None | 
49 | 18.3 |  | N#Cc1c(NC(=O)c2cccc3ccccc23)sc2c1CCCC2 [GW620972X] | Phenotype: Inactive; Curve_Description: None | 
50 |  | 18.3 | CCS(=O)(=O)c1ccc(OC)c(Nc2ncc(-c3ccccc3Cl)o2)c1 [GW622055X] |  | Phenotype: Inactive; Curve_Description: None
